# Laboratory results: patent US20240400555A1 (Initial Therapeutics, Inc., priority 2023, published 2024)
# System: MV-4-11 cells
# Assay: Cell Viability Assay in MV-4-11 Cells
# Format: cell-based
# Conditions: Homo sapiens, MV4-11, 72 h, MV-4-11 cells, 72 h, Cell-Titer Glo; read-out: IC50
# Procedure, shortened: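 MV-4-11 cells at 7,000/well in IMDM with 10% FBS, exposed to compound for 72 h. Viability by CellTiter-Glo luminescence, normalized to DMSO as 100%, fitted with a four-parameter curve.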
row,SMILES,IC50
1,"C=C(C)c1ccnc(N(C(=O)c2ccc(-c3cn(C)nn3)cc2F)[C@@H]2CCCNC2)c1 [Example 887, 2-fluoro-N-(4-isopropenyl-2-pyridyl)-4-(1-methyltriazol-4-yl)-N-[(3R)-3-piperidyl]benzamide]",> 6300 nM
2,CC(C)(Oc1cccc(-c2cc3c(N(C(=O)c4ccc(-n5nnc6cccnc65)cc4F)[C@@H]4CCCNC4)nccc3s2)c1)C(N)=O [Example 594],190 nM
3,"CCc1nnc(-c2ccc(C(=O)N(c3nccc4cc(F)cc(C)c34)[C@@H]3CCCNC3)nc2)s1 [Example 672, (R)-5-(5-ethyl-1,3,4-thiadiazol-2-yl)-N-(6-fluoro-8-methylisoquinolin-1-yl)-N-(piperidin-3-yl)picolinamide]",180 nM
4,"Cc1nnc(-c2ccc(C(=O)N(c3nccc4cc(F)ccc34)[C@@H]3CCCNC3)cc2)s1 [Example 804, (R)—N-(6-fluoroisoquinolin-1-yl)-4-(5-methyl-1,3,4-thiadiazol-2-yl)-N-(piperidin-3-yl)benzamide]",980 nM
5,"Cn1cc(-c2ccc(C(=O)N(c3nccc4sc(-c5ccc6c(c5)CNC6=O)cc34)[C@@H]3CCCNC3)c(F)c2)nn1 [Example 538, 2-fluoro-4-(1-methyltriazol-4-yl)-N-[2-(1-oxoisoindolin-5-yl)thieno[3,2-c]pyridin-4-yl]-N-[(3R)-3-piperidyl]benzamide]",920 nM
6,"O=C(c1ccc(-n2nnc3cccnc32)cc1F)N(c1nccc2cnccc12)[C@@H]1CCCNC1 [Example 849, (R)-4-(3H-[1,2,3]triazolo[4,5-b]pyridin-3-yl)-2-fluoro-N-(2,6-naphthyridin-1-yl)-N-(piperidin-3-yl)benzamide]",2600 nM
7,"Cc1cc(C2=NOC(C)(C)C2=O)ccc1C(=O)N(c1nccc2sc(C#CCO)cc12)[C@@H]1CCCNC1 [Example 737, (R)-4-(5,5-dimethyl-4-oxo-4,5-dihydroisoxazol-3-yl)-N-(2-(3-hydroxyprop-1-yn-1-yl)thieno[3,2-c]pyridin-4-yl)-2-methyl-N-(piperidin-3-yl)benzamide]",2100 nM

# Stronger by IC50, values ahead:
row,IC50,SMILES
1,90 nM,"Cc1cccc2ccnc(N(C(=O)c3ccc(C#N)c(-c4ccc(-c5ccncc5)cc4)c3)[C@@H]3CCCNC3)c12 [Example 330, 4-cyano-N-(8-methyl-1-isoquinolyl)-N-[(3R)-3-piperidyl]-3-[4-(4-pyridyl)phenyl]benzamide]"
2,54 nM,"Cc1cccc2ccnc(N(C(=O)c3ccc(Nc4ncc(F)cn4)cc3F)[C@@H]3CCCNC3)c12 [Example 409, (R)-2-fluoro-4-((5-fluoropyrimidin-2-yl)amino)-N-(8-methylisoquinolin-1-yl)-N-(piperidin-3-yl)benzamide]"
3,130 nM,"COc1cc(C)c2c(N(C(=O)c3ccc(-c4nc(C)no4)cc3)[C@@H]3CCCNC3)nccc2c1 [Example 914, N-(6-methoxy-8-methyl-1-isoquinolyl)-4-(3-methyl-1,2,4-oxadiazol-5-yl)-N-[(3R)-3-piperidyl] benzamide]"
4,140 nM,"COc1cc(C)c2c(N(C(=O)c3ccc(-c4nnc(C)s4)nc3)[C@@H]3CCCNC3)nccc2c1F [Example 911, N-(5-fluoro-6-methoxy-8-methyl-1-isoquinolyl)-6-(5-methyl-1,3,4-thiadiazol-2-yl)-N-[(3R)-3-piperidyl]pyridine-3-carboxamide]"
5,120 nM,"Cc1cn(-c2ccc(C(=O)N(c3nccc4scc(C)c34)[C@@H]3CCCNC3)cc2)nn1 [Example 689, (R)-4-(4-methyl-1H-1,2,3-triazol-1-yl)-N-(3-methylthieno[3,2-c]pyridin-4-yl)-N-(piperidin-3-yl)benzamide]"
6,75 nM,"Cc1cccc2ccnc(N(C(=O)c3ccc(Nc4nccc(N5CC(O)C5)n4)cc3F)[C@@H]3CCCNC3)c12 [Example 680, (R)-2-fluoro-4-((4-(3-hydroxyazetidin-1-yl)pyrimidin-2-yl)amino)-N-(8-methylisoquinolin-1-yl)-N-(piperidin-3-yl)benzamide]"
